These results are taken from patent US7767789B2, “Truncated proteins as cancer markers” (University Hopitals of Cleveland, priority 2005, dated 2010).

In one assay the test system is HeLa cells. Kind of assay: Cell selection: growth with BzATP and immunoblot of P2X7/P2X7-j protein, HeLa. Type of assay: cell-based, human. Particulars: 50 micromolar BzATP, seven days. How it is done:
Growth of various cell lines expressing P2X7 and/or P2X7-j in the presence or absence of BzATP was performed to determine how P2X7 receptors may affect cell selection over time. FIG. 23. HEK-293 cells expressing P2X7, HEK-293 cells expressing P2X7-j, or HeLa cells, which express both P2X7 and P2X7-j were separately grown in culture, in the presence or absence of 50 micromolar BzATP for seven (7) days. At various time points, samples of the cells were taken and examined for expression of P2X7 and/or P2X7-j protein by immunoblotting using a P2X7-specific antibody. This antibody was obtained from Alomone Labs (Jerusalem, Israel) and was reactive with the extracellular domain of P2X7 protein. Amino acids 136-152 of the mouse P2X7 receptor ([…]; (SEQ ID NO:7)) were used as the antigen to prepare the antibody. A labeled secondary antibody was used to visualize reactive protein bands. By layering equal amounts of total protein (15 micrograms) it was possible to compare the relative expression of the P2X7 and/or P2X7-j proteins by the cells.

Assay [1] concerns HEK-293 cells (wild-type, expressing P2X7 or P2X7-j). Kind of assay: Cell-number index of HEK-293 cells grown in culture. The class given is cell-based, human. Particulars: 100 micromolar BzATP. How it is done:
Alterations in cell number for HEK-293 cells, HEK-293 cells expressing P2X7-RFL, and HEK-293 cells expressing P2X7-RTR grown in culture were studied. FIG. 15A. The three cells lines were grown in culture and viable cells were counted for a period of 3 days. The data are presented as cell number index versus days in culture. […] For example, a P2X7-RFL receptor protein may facilitate cellular apoptosis (infra).
The cell number of wild-type HEK-293 cells and of HEK-293 cells expressing P2X7-j protein increased to a greater degree than that of HEK-293 cells expressing the P2X7 protein. FIG. 15A.

Take “2′-3′-O-(4-benzoylbenzoyl)adenosine 5′-triphosphate [BzATP]”: the “expression of P2X7 protein” value with HeLa cells is recorded as “significantly decreased”. Further, the “expression of the P2X7-j protein” value with HeLa cells is given as “remained stable”. Further, the “growth of cells (cell number)” value in assay [1] (HEK-293-P2X7-j cells) was “no significant effect”; in assay [1] (HEK-293-P2X7 cells) it was “significantly decreased further the growth”; in assay [1] (wild-type HEK-293 cells), “no significant effect”.
